Patent publication US20100331348A1, “TROPANE DERIVATIVES USEFUL AS PESTICIDES” (SYNGENTA CROP PROTECTION, INC., priority 2007, published 2010)
Where two headings read alike, the source gives them in different places.

Experiments:
Tetranychus urticae = details: foliar, 192 h, read-out: control of Tetranychus urticae
Pyricularia oryzae = assay: whole plant or invertebrate; assay type: in vivo; details: foliar, 96 h
[1] = tested on: Puccinia recondita f.sp. tritici; assay: Puccinia recondita f.sp. tritici (wheat brown rust) leaf disk assay; assay type: in vivo; details: foliar, 216 h, preventive, nine days after inoculation, read-out: control of fungal infection, Puccinia recondita f.sp. tritici
Heliothis virescens = Heliothis virescens (Tobacco budworm) egg test on artificial diet; details: 96 h, read-out: control of Heliothis virescens
Plutella xylostella = Plutella xylostella (Diamond back moth) artificial diet test; details: 120 h, read-out: control of Plutella xylostella
Septoria tritici = Septoria tritici (leaf blotch) growth inhibition in nutrient broth; assay type: cell-based; details: Zymoseptoria tritici, 72 hrs, read-out: control of fungal infection, Septoria tritici
Aedes aegypti = Aedes aegypti (Yellow fever mosquito) larvae test; assay type: in vivo; details: 48 h
Pythium ultimum = Pythium ultimum (Damping off) growth inhibition in potato dextrose broth; assay type: cell-based; details: Globisporangium ultimum, 48 hours, read-out: control of fungal infection, Pythium ultimum
[2] = tested on: Erysiphe graminis f.sp. tritici; assay: Erysiphe graminis f.sp. tritici (wheat powdery mildew) leaf disk assay; assay type: in vivo; details: Blumeria graminis, foliar, 96 h, preventive, four days after inoculation, read-out: control of fungal infection, Erysiphe graminis fsp. tritici
Spodoptera littoralis = Spodoptera littoralis (Egyptian cotton leafworm) cotton leaf disc test; details: in Gossypium hirsutum, foliar, 72 h, read-out: control of Spodoptera littoralis
Phytophthora infestans = assay: whole plant or invertebrate; assay type: in vivo; details: foliar, 96 h, read-out: control of fungal infection, Phytophthora infestans
Myzus persicae = Myzus persicae (Green peach aphid) sunflower leaf disc test; details: foliar, 144 h, read-out: control of Myzus persicae
Plasmopara viticola = Plasmopara viticola (downy mildew of grapevine) leaf disk assay; assay type: in vivo; details: foliar, 168 h, preventive, seven days after inoculation, read-out: control of fungal infection, Plasmopara viticola
[3] = read-out: control of fungal infection, Pyricularia oryzae (at least 60% list)
[4] = read-out: control of fungal infection, Pyricularia oryzae (at least 80% list)

FC(F)(F)c1ccc(CON=C2CC3CCC(C2)N3c2ncnc3ccccc23)cc1 [Example 5.128]
pest or weed control at 200 ppm (Tetranychus urticae): ≥ 80%
pest or weed control at 200 ppm (Pyricularia oryzae; [3]): ≥ 60%
pest or weed control at 200 ppm (Pyricularia oryzae; [4]): ≥ 80%
pest or weed control at 200 ppm [1]: ≥ 80%
pest or weed control at 200 ppm (Heliothis virescens): ≥ 80%
pest or weed control at 200 ppm (Plutella xylostella): ≥ 80%
inhibition of growth at 200 ppm (Septoria tritici): ≥ 60%
pest or weed control at 2 ppm (Aedes aegypti): ≥ 80%
inhibition of growth at 200 ppm (Pythium ultimum): ≥ 60%

Fc1ccc(F)c(CON=C2CC3CCC(C2)N3c2ncnc3ccccc23)c1F [Example 5.134]
pest or weed control at 200 ppm (Pyricularia oryzae; [3]): ≥ 60%
pest or weed control at 200 ppm [1]: ≥ 80%
pest or weed control at 200 ppm (Heliothis virescens): ≥ 80%
pest or weed control at 200 ppm (Plutella xylostella): ≥ 80%
inhibition of growth at 200 ppm (Septoria tritici): ≥ 60%
pest or weed control at 2 ppm (Aedes aegypti): ≥ 80%
inhibition of growth at 200 ppm (Pythium ultimum): ≥ 60%

Fc1cc(C(F)(F)F)ccc1CON=C1CC2CCC(C1)N2c1ncnc2ccccc12 [Example 5.135]
pest or weed control at 200 ppm (Tetranychus urticae): ≥ 80%
pest or weed control at 200 ppm (Pyricularia oryzae; [3]): ≥ 60%
pest or weed control at 200 ppm (Pyricularia oryzae; [4]): ≥ 80%
pest or weed control at 200 ppm [1]: ≥ 80%
pest or weed control at 200 ppm (Heliothis virescens): ≥ 80%
pest or weed control at 200 ppm (Plutella xylostella): ≥ 80%
inhibition of growth at 200 ppm (Septoria tritici): ≥ 60%
pest or weed control at 2 ppm (Aedes aegypti): ≥ 80%
inhibition of growth at 200 ppm (Pythium ultimum): ≥ 60%

Fc1ccccc1CON=C1CC2CCC(C1)N2c1ncnc2sccc12 [Example 5.211]
pest or weed control at 200 ppm [2]: ≥ 80%
pest or weed control at 200 ppm (Spodoptera littoralis): ≥ 80%
pest or weed control at 200 ppm (Phytophthora infestans): ≥ 80%
pest or weed control at 200 ppm [1]: ≥ 80%
pest or weed control at 200 ppm (Heliothis virescens): ≥ 80%
pest or weed control at 200 ppm (Plutella xylostella): ≥ 80%
pest or weed control at 2 ppm (Aedes aegypti): ≥ 80%

Fc1cccc(F)c1CON=C1CC2CCC(C1)N2c1ncnc2sccc12 [Example 5.215]
pest or weed control at 200 ppm [2]: ≥ 80%
pest or weed control at 200 ppm (Spodoptera littoralis): ≥ 80%
pest or weed control at 200 ppm (Myzus persicae): ≥ 80%
pest or weed control at 200 ppm (Tetranychus urticae): ≥ 80%
pest or weed control at 200 ppm (Pyricularia oryzae; [3]): ≥ 60%
pest or weed control at 200 ppm (Pyricularia oryzae; [4]): ≥ 80%
pest or weed control at 200 ppm (Plasmopara viticola): ≥ 80%
pest or weed control at 200 ppm [1]: ≥ 80%
pest or weed control at 200 ppm (Plutella xylostella): ≥ 80%
pest or weed control at 2 ppm (Aedes aegypti): ≥ 80%

Fc1ccc(F)c(CON=C2CC3CCC(C2)N3c2ncnc3sccc23)c1 [Example 5.218]
pest or weed control at 200 ppm [2]: ≥ 80%
pest or weed control at 200 ppm (Myzus persicae): ≥ 80%
pest or weed control at 200 ppm (Tetranychus urticae): ≥ 80%
pest or weed control at 200 ppm (Pyricularia oryzae; [3]): ≥ 60%
pest or weed control at 200 ppm (Pyricularia oryzae; [4]): ≥ 80%
pest or weed control at 200 ppm [1]: ≥ 80%
pest or weed control at 200 ppm (Plutella xylostella): ≥ 80%
pest or weed control at 2 ppm (Aedes aegypti): ≥ 80%
inhibition of growth at 200 ppm (Pythium ultimum): ≥ 60%

Fc1ccc(CON=C2CC3CCC(C2)N3c2ncnc3sccc23)c(F)c1F [Example 5.222]
pest or weed control at 200 ppm [2]: ≥ 80%
pest or weed control at 200 ppm (Myzus persicae): ≥ 80%
pest or weed control at 200 ppm (Pyricularia oryzae; [3]): ≥ 60%
pest or weed control at 200 ppm (Plasmopara viticola): ≥ 80%
pest or weed control at 200 ppm [1]: ≥ 80%
pest or weed control at 200 ppm (Plutella xylostella): ≥ 80%
pest or weed control at 2 ppm (Aedes aegypti): ≥ 80%
inhibition of growth at 200 ppm (Pythium ultimum): ≥ 60%

c1ccc(CC2CC3CCC(C2)N3c2ncnc3sccc23)cc1 (stereo not drawn) [Example 7.6]
pest or weed control at 200 ppm (Pyricularia oryzae; [3]): ≥ 60%
pest or weed control at 200 ppm (Pyricularia oryzae; [4]): ≥ 80%
pest or weed control at 200 ppm (Plasmopara viticola): ≥ 80%
pest or weed control at 200 ppm [1]: ≥ 80%
pest or weed control at 200 ppm (Heliothis virescens): ≥ 80%
inhibition of growth at 200 ppm (Septoria tritici): ≥ 60%
pest or weed control at 2 ppm (Aedes aegypti): ≥ 80%

COC(=O)CC1CC2CCC(C1)N2c1ncnc2sccc12 (stereo not drawn) [Example 7.9]
pest or weed control at 200 ppm (Tetranychus urticae): ≥ 80%
pest or weed control at 200 ppm (Plutella xylostella): ≥ 80%
inhibition of growth at 200 ppm (Septoria tritici): ≥ 60%
pest or weed control at 2 ppm (Aedes aegypti): ≥ 80%

Clc1ccc(CC2CC3CCC(C2)N3c2ncnc3sccc23)cc1 (stereo not drawn) [Example 7.10]
pest or weed control at 200 ppm (Pyricularia oryzae; [3]): ≥ 60%
pest or weed control at 200 ppm (Pyricularia oryzae; [4]): ≥ 80%
pest or weed control at 200 ppm (Plasmopara viticola): ≥ 80%
pest or weed control at 200 ppm [1]: ≥ 80%
pest or weed control at 200 ppm (Heliothis virescens): ≥ 80%
inhibition of growth at 200 ppm (Septoria tritici): ≥ 60%
pest or weed control at 2 ppm (Aedes aegypti): ≥ 80%

CCc1ncnc(N2C3CCC2CC(Cc2ccccc2)C3)c1Cl (stereo not drawn) [Example 7.23]
pest or weed control at 200 ppm [1]: ≥ 80%
pest or weed control at 200 ppm (Plutella xylostella): ≥ 80%
inhibition of growth at 200 ppm (Septoria tritici): ≥ 60%
pest or weed control at 2 ppm (Aedes aegypti): ≥ 80%

CCc1ncnc(N2C3CCC2CC(O)(CC#Cc2ccccc2)C3)c1Cl (stereo not drawn) [Example 7.35]
pest or weed control at 200 ppm (Pyricularia oryzae; [3]): ≥ 60%
pest or weed control at 200 ppm (Plasmopara viticola): ≥ 80%
pest or weed control at 200 ppm [1]: ≥ 80%
inhibition of growth at 200 ppm (Septoria tritici): ≥ 60%

CCc1ncnc(N2C3CCC2CC(CC(=O)OC)C3)c1Cl (stereo not drawn) [Example 7.36]
pest or weed control at 200 ppm (Tetranychus urticae): ≥ 80%
pest or weed control at 200 ppm (Heliothis virescens): ≥ 80%
pest or weed control at 200 ppm (Plutella xylostella): ≥ 80%
inhibition of growth at 200 ppm (Septoria tritici): ≥ 60%
pest or weed control at 2 ppm (Aedes aegypti): ≥ 80%
